Tested on: KRAS G12V dependent lung adenocarcinoma cell line, NCI-H441
Experiment: Cellular pERK (Thr202/Tyr204) FRET/HTRF assay
Assay type: cell-based
Text: “Ras” refers to a protein in the Ras superfamily of small GTPases, such as in the Ras subfamily. […] The Ras proteins play a critical role in the regulation of cell behaviors, including proliferation, differentiation, and survival. […] KRAS G12V, G12D, and G12S variants are common in human cancers and Ras inhibitors binding in or near the Switch II pocket may provide mutant binding selectivity. RAS mutations are known to be often associated with pancreatic, colorectal and non-small-cell lung carcinomas (Lone, A. M. et al. J. Am. Chem. Soc. 2011,133, 11665-74, which is entirely incorporated herein by reference; Dillon, M. B.; Bachovchin, D. A.; Brown, S. J.; Finn, M. G.; Rosen, H.; Cravatt, B. F.; Mowen, K. A. ACS Chem. Biol. 2012, 7, 1198-204, which is entirely incorporated herein by reference; Bachovchin, D. A.; Brown, S. J.; Rosen, H.; Cravatt, B. F. Nat. Biotechnol. 2009, 27, 387-94, Ostrem, J. M.; Peters, U.; Sos, M. L.; Wells, J. A.; Shokat, K. M. Nature 2013, 503, 548-551. Ryan M. B. and Corcoran R. B, Nat. Rev Clin Onco. 2018, 11, 709-720.). Ras proteins are key members in the Ras/Raf/Mitogen-activated protein kinase (MAPK) signaling pathway. This pathway regulates a wide variety of cellular processes, including proliferation, differentiation, apoptosis, and stress responses. One way to measure the impact of an inhibitor of Ras proteins is to measure downstream phosphorylation of proteins in the MAPK pathway. The MAPK pathway includes extracellular signal-regulated kinases named ERK1 and ERK2, which are serine-threonine kinases that regulate cellular signaling under both normal and oncogenic conditions. ERK expression and hyperactivation via phosphorylation plays a major role in cancer progression and are downstream of Ras proteins. The assay used for measuring the downstream impact of Ras inhibition is the use of a highly sensitive cell-based readout of ERK phosphorylation (pERK) specifically on Threonine (Thr) 202 and Tyrosine (Tyr) 204 in a KRAS G12V dependent lung adenocarcinoma cell line, NCI-H441 (ATCC Cat #HTB-174). The assay described herein is suitable for assessing inhibition of Ras and can be tailored for any of the predominant oncogenic mutations in any isoform of Ras (e.g., KRAS, HRAS, and NRAS) by changing the cell line.
pERK was measured using an advanced pERK assay designed for the robust and highly sensitive quantification of ERK phosphorylation on Thr202/Tyr204. This assay is intended for the simple, rapid, and direct detection of endogenous levels of ERK1/2 in cells, but only when ERK is phosphorylated at Thr202 and Tyr204 (Perkin Elmer Catalog #64AERPEH). pERK was detected in a FRET based sandwich assay format using 2 different specific antibodies, one labelled with Eu3+-Cryptate (donor) and the second with d2 (acceptor). When the dyes are in close proximity, the excitation of the donor with a light source (laser or flash lamp) triggers a Fluorescence Resonance Energy Transfer (FRET) towards the acceptor, which in turn fluoresces at a specific wavelength (665 nm). The specific signal modulates positively in proportion to p-ERK1/2 (Thr202/Tyr204). The simple mix-and-read protocol eliminates all wash steps for faster analysis and high-quality output. Briefly, cells were diluted to the desired concentration per well based on a growth curve showing ˜75% confluence within a 24-hour time period at no less than 95% viability. Cell suspension (24 μL) were added into each well of 384-well culture plate and maintained in 37° C. 5% CO2 incubator overnight prior to assay. All compounds were transferred to stock plates using TECAN (EVO200) liquid handler using DMSO as the solubilizing and dilution agent. Test compounds were transferred onto adherent cells using an Echo655 liquid handler. DMSO was employed as negative control. Cells were incubated with test compounds for 1 hr in a 37° C., 5% CO2 incubator following compound addition. […]

[1] = Homo sapiens, NCI-H441, cellular pERK (Thr202/Tyr204) HTRF, NCI-H441 cells
[2] = cellular pERK HTRF, NCI-H441 (KRAS G12V) cells
[3] = cellular pERK (Thr202/Tyr204) HTRF, NCI-H441 cells

C=C1CN2CCC[C@@]2(COc2nc(N3CCOC[C@H]4[C@H](F)[C@H]43)c3cc(C(F)(F)F)c(-c4ccc(F)c5sc(N)c(C#N)c45)c(F)c3n2)C1 (atropisomer, axis not shown) [Example 432, 2-amino-7-fluoro-4-((S)-8-fluoro-4-((1S,7S,8S)-8-fluoro-5-oxa-2-azabicyclo[5.1.0]octan-2-yl)-2-(((S)-2-methylenetetrahydro-1H-pyrrolizin-7a(5H)-yl)methoxy)-6-(trifluoromethyl)quinazolin-7-yl)benzo[b]thiophene-3-carbonitrile]
IC50 [1]: < 50 nM

C=C1CN2CCC[C@@]2(COc2nc(N3CCOC[C@H]4[C@H](F)[C@H]43)c3cc(C(F)(F)F)c(-c4ccc(F)c5sc(N)c(C#N)c45)c(F)c3n2)C1 (atropisomer, axis not shown) [Example 433, 2-amino-7-fluoro-4-((R)-8-fluoro-4-((1S,7S,8S)-8-fluoro-5-oxa-2-azabicyclo[5.1.0]octan-2-yl)-2-(((S)-2-methylenetetrahydro-1H-pyrrolizin-7a(5H)-yl)methoxy)-6-(trifluoromethyl)quinazolin-7-yl)benzo[b]thiophene-3-carbonitrile]
IC50 (Homo sapiens, NCI-H441, cellular pERK HTRF, NCI-H441 (KRAS G12V) cells): 500 to 10000 nM

N#Cc1c(N)sc2c(F)ccc(-c3c(C(F)(F)F)cc4c(N5CCOC[C@H]6[C@H](F)[C@H]65)nc(OC[C@@]56CCCN5CC(=C(F)F)C6)nc4c3F)c12 (atropisomer, axis not shown) [Example 438, 2-amino-4-((R)-2-(((S)-2-(difluoromethylene)tetrahydro-1H-pyrrolizin-7a(5H)-yl)methoxy)-8-fluoro-4-((1S,7S,8S)-8-fluoro-5-oxa-2-azabicyclo[5.1.0]octan-2-yl)-6-(trifluoromethyl)quinazolin-7-yl)-7-fluorobenzo[b]thiophene-3-carbonitrile]
IC50 [2]: 500 to 10000 nM

N#Cc1c(N)sc2c(F)ccc(-c3c(C(F)(F)F)cc4c(N5CCOC[C@H]6[C@H](F)[C@H]65)nc(OC[C@@]56CCCN5CC(=C(F)F)C6)nc4c3F)c12 (atropisomer, axis not shown) [Example 439, 2-amino-4-((S)-2-(((S)-2-(difluoromethylene)tetrahydro-1H-pyrrolizin-7a(5H)-yl)methoxy)-8-fluoro-4-((1S,7S,8S)-8-fluoro-5-oxa-2-azabicyclo[5.1.0]octan-2-yl)-6-(trifluoromethyl)quinazolin-7-yl)-7-fluorobenzo[b]thiophene-3-carbonitrile]
IC50 [2]: < 50 nM

[2H]C([2H])(Oc1nc(N2CCOC[C@H]3[C@H](F)[C@H]32)c2cc(C#N)c(-c3ccc(F)c4sc(N)c(C#N)c34)c(F)c2n1)[C@@]12CCCN1C[C@H](F)C2 (atropisomer, axis not shown; (aS)) [Example 349, (S)-7-(2-amino-3-cyano-7-fluorobenzo[b]thiophen-4-yl)-8-fluoro-4-((1S,7S,8S)-8-fluoro-5-oxa-2-azabicyclo[5.1.0]octan-2-yl)-2-(((2R,7aS)-2-fluorotetrahydro-1H-pyrrolizin-7a(5H)-yl)methoxy-d2)quinazoline-6-carbonitrile]
IC50 [3]: < 50 nM

[2H]C([2H])(Oc1nc(N2CCOC[C@H]3[C@H](F)[C@H]32)c2cc(C#N)c(-c3ccc(F)c4sc(N)c(C#N)c34)c(F)c2n1)[C@@]12CCCN1C[C@H](F)C2 (atropisomer, axis not shown; (aS)) [Example 351, (R)-7-(2-amino-3-cyano-7-fluorobenzo[b]thiophen-4-yl)-8-fluoro-4-((1S,7S,8S)-8-fluoro-5-oxa-2-azabicyclo[5.1.0]octan-2-yl)-2-(((2R,7aS)-2-fluorotetrahydro-1H-pyrrolizin-7a(5H)-yl)methoxy-d2)quinazoline-6-carbonitrile]
IC50 [3]: 500 to 10000 nM

[2H]C([2H])(Oc1nc(N2CCOC[C@H]3[C@H](F)[C@H]32)c2cc(Cl)c(-c3ccc(F)c4sc(N)c(C#N)c34)c(F)c2n1)[C@@]12CCCN1C[C@H](F)C2 (atropisomer, axis not shown; (aS)) [Example 352, 2-amino-4-((S)-6-chloro-8-fluoro-4-((1S,7S,8S)-8-fluoro-5-oxa-2-azabicyclo[5.1.0]octan-2-yl)-2-(((2R,7aS)-2-fluorotetrahydro-1H-pyrrolizin-7a(5H)-yl)methoxy-d2)quinazolin-7-yl)-7-fluorobenzo[b]thiophene-3-carbonitrile]
IC50 [1]: 500 to 10000 nM

[2H]C([2H])(Oc1nc(N2CCOC[C@H]3[C@H](F)[C@H]32)c2cc(F)c(-c3ccc(F)c4sc(N)c(C#N)c34)c(F)c2n1)[C@@]12CCCN1C[C@H](F)C2 (atropisomer, axis not shown; (aS)) [Example 356, 2-amino-4-((R)-6,8-difluoro-4-((1S,7S,8S)-8-fluoro-5-oxa-2-azabicyclo[5.1.0]octan-2-yl)-2-(((2R,7aS)-2-fluorotetrahydro-1H-pyrrolizin-7a(5H)-yl)methoxy-d2)quinazolin-7-yl)-7-fluorobenzo[b]thiophene-3-carbonitrile]
IC50 [3]: 500 to 10000 nM

[2H]C([2H])(Oc1nc(N2CCOC[C@H]3[C@H](F)[C@H]32)c2cc(F)c(-c3ccc(F)c4sc(N)c(C#N)c34)c(F)c2n1)[C@@]12CCCN1C[C@H](F)C2 (atropisomer, axis not shown; (aS)) [Example 357, 2-amino-4-((S)-6,8-difluoro-4-((1S,7S,8S)-8-fluoro-5-oxa-2-azabicyclo[5.1.0]octan-2-yl)-2-(((2R,7aS)-2-fluorotetrahydro-1H-pyrrolizin-7a(5H)-yl)methoxy-d2)quinazolin-7-yl)-7-fluorobenzo[b]thiophene-3-carbonitrile]
IC50 [3]: < 50 nM

[2H]C([2H])(Oc1nc(N2CCOC[C@H]3[C@H](F)[C@H]32)c2cc(C#N)c(-c3cc(N)cc4ccc(F)c(C#C)c34)c(F)c2n1)[C@@]12CCCN1C[C@H](F)C2 (atropisomer, axis not shown; (aS)) [Example 358, (S)-7-(3-amino-8-ethynyl-7-fluoronaphthalen-1-yl)-8-fluoro-4-((1S,7S,8S)-8-fluoro-5-oxa-2-azabicyclo[5.1.0]octan-2-yl)-2-(((2R,7aS)-2-fluorotetrahydro-1H-pyrrolizin-7a(5H)-yl)methoxy-d2)quinazoline-6-carbonitrile]
IC50 [3]: < 50 nM

[2H]C([2H])(Oc1nc(N2CCOC[C@H]3[C@H](F)[C@H]32)c2cc(Cl)c(-c3cc(N)cc4ccc(F)c(C#C)c34)c(F)c2n1)[C@@]12CCCN1C[C@H](F)C2 (atropisomer, axis not shown; (aS)) [Example 359, 4-((R)-6-chloro-8-fluoro-4-((1S,7S,8S)-8-fluoro-5-oxa-2-azabicyclo[5.1.0]octan-2-yl)-2-(((2R,7aS)-2-fluorotetrahydro-1H-pyrrolizin-7a(5H)-yl)methoxy-d2)quinazolin-7-yl)-5-ethynyl-6-fluoronaphthalen-2-amine]
IC50 [3]: < 50 nM

[2H]C([2H])(Oc1nc(N2CCOC[C@H]3[C@H](F)[C@H]32)c2cc(C#N)c(-c3cc(N)cc4ccc(F)c(C#C)c34)c(F)c2n1)[C@@]12CCCN1C[C@H](F)C2 (atropisomer, axis not shown; (aS)) [Example 360, (R)-7-(3-amino-8-ethynyl-7-fluoronaphthalen-1-yl)-8-fluoro-4-((1S,7S,8S)-8-fluoro-5-oxa-2-azabicyclo[5.1.0]octan-2-yl)-2-(((2R,7aS)-2-fluorotetrahydro-1H-pyrrolizin-7a(5H)-yl)methoxy-d2)quinazoline-6-carbonitrile]
IC50 [3]: 500 to 10000 nM

Source: US20250282799A1, “SUBSTITUTED PYRIDO[4,3-d]PYRIMIDINES AS KRAS MODULATORS” (Alterome Therapeutics, Inc., priority 2023, published 2025)
